Assay: solubility of 2-amino-5-methyl-1,3,4-oxadiazole in water and aqueous NaCl solution (salting-out effect)
Type: physicochemical

Cc1nnc(N)o1 [2-amino-5-methyl-1,3,4-oxadiazole]
solubility in a 10 mass % aqueous NaCl solution (10 mass % aqueous NaCl solution (30° C. as in the same sentence)): 7.9 % by mass
solubility in a 26.4 mass % aqueous NaCl solution (30° C.): 3.5 % by mass
solubility in a 26.4 mass % aqueous NaCl solution (−5° C.): 1.1 % by mass
solubility in water (water, 30° C.): 13.9 % by mass

— patent US20260209195A1, “METHOD FOR PRODUCING 2-AMINO-5-SUBSTITUTED-1,3,4-OXADIAZOLE” (MITSUBISHI GAS CHEMICAL NEXT COMPANY, INC., priority 2022, published 2026)
